From patent US20070087982A1, “Methods of treatment and diagnosis using modulators of virus-induced cellular gene sequences” (priority 2003, published 2007)

What was measured:
HIV-infected MT-2 cells = test: HIV-induced syncytia formation in MT-2 cells; type: cell-based, human; conditions: 48 hours post infection
Protocol: The panels of FIG. 7 show the relative extent of HIV-induced syncytia formation in MT-2 cells at 48 hours post infection under various conditions. “Control” cells are HIV-infected cells, but are not treated with any test agent. “DMSO” treatment alone is also included as a control. Other treatments include, AZT, PP3 and PP2, all solubilized in DMSO.

WNV = test: Infectious WNV within infected SKN-MC cell lysates (plaque assay on Vero cells); type: cell-based, West Nile virus
Protocol: Additionally, infectious virus within infected cell lysates was decreased almost 10^6-fold four hours post-addition of PP2 (FIG. 8B, gray bars; and FIG. 15, left panel). […] Specifically, SKN-MC cells were infected with WNV as above. At 2 hpi, cells were treated with PP2 at the indicated final concentrations. At 20 hpi, cells were re-fed with media containing fresh PP2 at the same concentration. Cells were washed 3-times with phosphate buffered saline (PBS), resuspended in 250 μl PBS, and then lysed by 3 successive freeze/thaws. Lysates were centrifuged at 13,000×g for 5 minutes, followed by collection of the supernatant. Infectious virus in soluble lysate was measured by plaque assay on Vero cells. Samples were collected 4-hours post-addition of fresh PP2 (gray bars) and 24 hours post addition of fresh PP2 (black bars). 24-hours post-addition of PP2, virus within the infected cell was approximately 500-fold lower, indicating some recovery from the effect of the drug (FIG. 8B, black bars).

WNV (NY1999) = test: Infectious WNV in culture supernatant of SKN-MC cells (plaque assay on Vero cells); type: cell-based, West Nile virus; conditions: multiplicity of infection 5, 20 μM, 22 hours post-infection (20 h post-PP2 addition)
From the text: SKN-MC neutoblastoma cells were infected with WNV at a multiplicity of 5.

HIV-1 89.6 [1] = test: HIV replication assay (HIV-1 p24 antigen ELISA) in HIV-infected THP-1 and MT-2 cells; type: cell-based; conditions: for Extent of PMO-induced Inhibition of HIV replication: HIV-1 89.6, measured by gag p24 production, gene-specific PMO antisense
From the text: Introduction of antisense PMO into HIV-infected THP-1 or MT-2 cells. Antisense PMO molecules, for delivery purposes, are typically converted to a paired duplex together with a partially complementary cDNA oligonucleotide in the weakly basic delivery reagent ethoxylated polyethylenimine (EPEI) (Summerton, supra). The anionic complex binds to the cell surface, is taken up by endocytosis and eventually released into the cytosol. A protocol for optimum uptake of antisense PMO in THP-1 and MT-2 cells was developed using a modification of the EPEI method. PMO-AS were obtained from GeneTools (Genetools, LLC, One Summerton Way, Philomath, Oreg. 97370).
Briefly, loading into target cells was accomplished by complexing the PMO with a proprietary loading reagent, Ethoxylated Polyethylenimine (EPEI). Target cells (MT-2 or THP-1) were introduced into snap cap conical tubes (5×10^5 cells/tube) in 900 μl serum free RPMI and the EPEI-PMO complex was added for 4 hours at 37° C. in a 7% CO2 atmosphere. The PMO-EPEI complex was prepared by diluting 5 μl PMO in 40 μl sterile RNase-free water, adding 5 μl EPEI, vortexing and incubating the sample for 20 minutes at room temperature. The sample was then mixed with 50 μl serum-free RPMI and added to the target cells to yield a final volume of 1 ml. At the end of the loading period, cells were gently pelleted and the PMO solution was removed by aspiration. After a further wash, cells were incubated in complete RPMI for 12 hrs prior to HIV infection to allow for recovery and initiation of PMO action.
HIV-1 Infection. PMO-treated THP-1 or MT-2 cells were infected with 50 μl of concentrated HIV-1 89.6 diluted to 1 ml in serum-free RPMI. The following control cultures were identically infected: (i) to control for any non-specific effect of the loading protocol, cells exposed to EPEI alone during the loading procedure; (ii) as a positive control for normal HIV infection, cells that were not exposed to either EPEI or EPEI-PMO; (iii) as a control for HIV inhibition, cells infected with HIV in the presence of 2 μM AZT and maintained in AZT throughout.
Cells were exposed to HIV for 4 hours. The inoculum was removed by 3 cycles of pelleting and rinsing. The cells were resuspended in 1.5 ml of complete RPMI and 0.5 ml immediately removed at Time 0 to leave a final volume of 1 ml. The Time 0 sample served as a measure of residual virus. At each harvest time (T1 through T4), 0.5 ml of supernatant was removed and replaced with an equal volume of complete RPMI. Samples were stored at −80° C. until evaluation using a p24 ELISA assay (described below). Each experimental variable and control was performed in duplicate. T1 through T4 typically corresponded to 16, 24, 40 and 48 hrs PI, respectively.
Validation of KSHV-induced gene sequences; HIV-1 p24 antigen ELISA. To monitor the effect of PMO-targeting of cellular proteins on HIV replication, supernatants harvested from PMO-treated and control THP and MT-2 cells were assayed using an HIV p24 antigen ELISA. The rationale behind this assay is described in the following paragraph.
The HIV-1 gag protein p24 is the major internal structural component of the virion core. The Coulter p24 assay is an enzyme-liked immunosorbent assay (ELISA) performed using a commercially available kit (Beckman Coulter). It was developed specifically for the detection and quantitation of HIV-1 p24 in plasma or serum, for clinical purposes, or in tissue culture supernatants, to monitor virus replication. Each kit contains a 96-well microtiter tray pre-coated with a monoclonal antibody to p24. A specimen of plasma, serum or tissue culture supernatant is added to each well along with a viral lysis buffer and incubated to allow any p24 antigen present to bind to the coated well. Following a wash, biotinylated human anti-HIV IgG is added and incubated to allow complexing to any bound p24. Following another wash, strepatavidin-HRP is added to complex with any bound biotinylated complexes. […]

HIV-1 89.6 [2] = test: as above; type: cell-based; conditions: MT-2 cells infected with HIV 89.6; continued presence of 10 μM
WNV RNA = test: Quantitative RT-PCR (Taqman) of WNV RNA within infected SKN-MC cells; type: cell-based, West Nile virus; conditions: 4 hours post PP2 addition, normalized to β-actin
Protocol: Specifically, cells were prepared as described above in relation to FIG. 8B. Four hours post fresh PP2 addition, RNA was isolated from 200 μl of cell lysate by Trizol reagent (Invitrogen), and 1 μg total RNA was used in a quantitative RT-PCR reaction (Taqman) using WNV-specific primer and probe set and standards. An additional RT-PCR was performed using β-actin-specific primers and probe, for an internal control. WNV RNA quantities were normalized to the β-actin values.

WNV E protein = test: Endo H / PNGase F sensitivity of WNV E protein in infected Vero cells (western blot); type: cell-based, West Nile virus; conditions: WNV multiplicity 3, PP2 added 1 hpi, 24 hpi, consistent at 48 h
Protocol: Inhibition of src-family kinases (SFKs) may result in mis-localization or aberrant trafficking of WNV proteins, thereby interfering with formation of infectious particles. To test this hypothesis, lysates from WNV-infected cells (with or without PP2) were treated with Endoglycosidase H (Endo H) or Peptide N-glycosidase F (PNGase F).
Endo H removes immature high-mannose glycans from proteins. High-mannose structures are added to proteins in the endoplasmic reticulum (ER). Such structures are trimmed and further modified in the Golgi, conferring resistance to endo H. Sensitivity to endo H is therefore indicative of proteins that have not advanced beyond the endoplasmic reticulum in the secretory pathway (Maley, et al., Anal. Biochem. 180:195, 1989.
PNGase F will remove all glycan moieties regardless of modification.
Methods. Vero cells were infected with WNV (multiplicity=3) and treated with PP2 (or DMSO as a control) 1 h post-infection (hpi). At 24 or 48 hpi, cells were lysed in buffer containing 1% NP-40. Lysates were denatured and treated with endo H or PNGase F for 1 h. Samples were resolved by SDS-PAGE, and WNV E was detected by western blotting.

[3] = test system: mitochondrial respiration in viable cells; test: XTT respiration assay to assess compound toxicity; type: cell-based; conditions: at the concentrations used (20/40 μM Doxepin, 50/100 μM Pyrilamine, 50/100 μM Acyclovir, 20 μM PP2, 20 μM PP3)
From the text: The agents tested are cross-referenced to the respective bar graphs as shown in insert of the right panel. […] Briefly, the XTT assay is based on the cleavage of XTT (sodium 3-[1-(phenylamino-carbonyl)-3,4-tetrazolium]-bis (4-methoxy-6-nitro) benzene sulfonic acid hydrate) to form formazan by mitochondrial respiration in viable cells (see, e.g., Marshall et al., Growth Regul. 5:69-84, 1995).

c-yes mRNA = test: Quantitative RT-PCR of c-yes mRNA in siRNA-transfected Huh7 cells; type: cell-based, human; conditions: 2 μl of 20 μM siRNA per 300,000 cells, harvested 24 hpi
Protocol: Huh7 cells were transfected with either of c-yes-specific siRNAs 214 or 316, or a control siRNA directed against Lamins A and C. Transfection of 300,000 cells was carried out with 2 μl of a 20 μM siRNA (Dharmacon) and 1 μl Oligofectamine (Invitrogen) according to the manufacturer's protocol. Cells were […] 24 hours post-transfection, and cells and supernatant harvested at 24 hpi. 1 μg total cellular RNA was used for quantitative RT-PCR with c-yes-specific primers.

[4] = PMO-treated HIV-infected MT-2 cells
[5] = PMO-treated HIV-infected THP-1 cells

Cc1cn([C@H]2C[C@H](N=[N+]=[N-])[C@@H](CO)O2)c(=O)[nH]c1=O [AZT]
HIV-induced syncytia formation (HIV-infected MT-2 cells): substantially reduced syncytia formation

CC(C)(C)n1nc(-c2ccc(Cl)cc2)c2c(N)ncnc21 [PP2, 4-Amino-5-(4-chlorophenyl)-7-(t-butyl)pyrazolo[3,4-d]pyrimidine]
virus within the infected cell, lower than untreated (WNV; 24 hours post-addition of fresh PP2): approximately 500 fold | decrease of infectious virus within infected cell lysates (WNV; four hours post-addition of fresh PP2): ~10^6 fold | decrease of infectious WNV in the supernatant (WNV (NY1999)): 30 fold | HIV-induced syncytia formation (HIV-infected MT-2 cells): substantially reduced syncytia formation | anti-HIV activity (p24 production) (HIV-1 89.6 [1]; HIV-infected cells, 20 μM): substantial inhibition of HIV | HIV p24 production (HIV-1 89.6 [2]): substantial decrease | viral RNA within infected cells, treated vs untreated (WNV RNA): no significant difference | proportion of endo H-resistant population of WNV E protein (WNV E protein): dramatically decreased

CN(C)CCC=C1c2ccccc2COc2ccccc21 [doxepin]
compound toxicity (XTT respiration assay) [3]: Except for the higher concentration of doxepin, the compounds were not toxic

ARF1 (antisense ATGCTTGTGGACAGGTGGAAGGACA; all phosphorodiamidate morpholino (PMO))
Extent of PMO-induced Inhibition of HIV replication (HIV-1 89.6 [1]): (negative) | inhibition of HIV replication (HIV p24 gag production) (HIV-1 89.6 [1]; [4]): little or no affect on HIV replication

HMG20B (antisense CGCCCAGCATCTTGGTGATCTCGGG; all phosphorodiamidate morpholino (PMO))
Extent of PMO-induced Inhibition of HIV replication (HIV-1 89.6 [1]): positive | inhibition of HIV replication (HIV p24 gag production) (HIV-1 89.6 [1]; [4]): particularly effective at reproducibly inhibiting HIV replication | inhibition of HIV replication (HIV p24 gag production) (HIV-1 89.6 [1]; [5]): particularly effective at reproducibly inhibiting HIV replication

HRH1 (antisense GCGAAAGAGCAGCCGCCAGTTATGG; all phosphorodiamidate morpholino (PMO))
Extent of PMO-induced Inhibition of HIV replication (HIV-1 89.6 [1]): positive | inhibition of HIV replication (HIV p24 gag production) (HIV-1 89.6 [1]; [4]): particularly effective at reproducibly inhibiting HIV replication | inhibition of HIV replication (HIV p24 gag production) (HIV-1 89.6 [1]; [5]): particularly effective at reproducibly inhibiting HIV replication

YES (antisense TTTCTTTACTTTTAATGCAGCCCAT; all phosphorodiamidate morpholino (PMO))
Extent of PMO-induced Inhibition of HIV replication (HIV-1 89.6 [1]): positive | inhibition of HIV replication (HIV p24 gag production) (HIV-1 89.6 [1]; [4]): particularly effective at reproducibly inhibiting HIV replication | inhibition of HIV replication (HIV p24 gag production) (HIV-1 89.6 [1]; [5]): particularly effective at reproducibly inhibiting HIV replication

c-yes-specific siRNA 214 (guide AACGCCUUUUGGAGGUGCAUC; chemistry not given here; listed as Homo sapiens)
c-yes mRNA (c-yes mRNA): reduction of c-yes mRNA
